Read-outs that look alike come from different tables or passages of the source.
Tests used:
[1] = Cytotoxicity assay toward Jurkat-ECs; assay type: cell-based; details: human, Jurkat-EC cells, SI csv
Experimental: The cytotoxicity of compounds was verified toward Jurkat-ECs since these cells provide the readout in the ICB assay and present a much higher degree of susceptibility to the compounds’ toxicity than CHO-K1 cells (not shown). Jurkat-ECs were seeded on 96-well transparent plates in the presence of increasing concentrations of the compounds with DMSO-treated cells as a control. The concentration of DMSO was kept constant (0.1%). After 48 h of incubation, a tetrazolium reagent, Biolog redox dye MIX MB (Biolog), was added according to the manufacturer’s protocol, and the culture plates were incubated for an additional 2 h (37 °C, 5% CO2). The absorbance was measured using a Spark microplate reader (Tecan) at 590 nm with 750 nm as a reference. The data are presented as Jurkat-EC survival relative to DMSO-treated control cells. Data points represent mean ± SD values from three independent experiments. Half-maximal effective concentrations (EC50 values) were calculated from the dose–response curve using OriginPro 2020 (OriginLab) software.

[2] = system: Jurkat-ECs alone or with CHO wt or CHO/TCRAct cells; assay: ICB assay control where PD-L1 is absent; assay type: cell-based; details: 6 h; Figure S1
Experimental: The functional assay of the blockade of PD-1/PD-L1 interaction in vitro (PD-1/PD-L1 Blockade Bioassay, Promega) was performed according to the manufacturer’s protocol. CHO/TCRAct/PD-L1 cells or CHO/TCRAct or CHO-K1 cells were seeded on 96-well white plates at the density of 10,000 cells/well and the next day overlaid with Jurkat T cells (20,000 cells/well) in the presence of increasing concentrations of the compounds with DMSO only as a control (the concentration of DMSO was kept constant at 0.1%) or atezolizumab, as a positive control, anti-PD-L1 monoclonal antibody (Selleckchem). The 2.5-fold dilutions of atezolizumab were prepared in the assay buffer (RPMI 1640 + 1% FBS) on the day of the assay. Activation of the Jurkat T cells, reflected by luciferase activity, was monitored by luminescence measurements after 6 h of incubation (37 °C, 5% CO2), and 20 min of additional incubation with the Bio-Glo assay reagent (Promega) at room temperature. The luminescence was read on a Spark microplate reader (Tecan). The data are presented as fold induction of the luminescence signal relative to either untreated (for atezolizumab) or DMSO-treated (for compound) cells. Data points represent mean ± SD values from three to five independent experiments. Half-maximal effective concentrations (EC50 values) were calculated from the Hill curve fitting to the experimental data using Origin Pro 2020 software (OriginLab). […]
of the Immune Checkpoint Blockade (ICB) assay, where 8h, 8i, and 8j were used to restore the activation of effector Jurkat-ECs. Jurkat-ECs were either kept alone, or contacted with one of the following cell lines: wild type CHO K1 cells (CHO wt), CHO K1 cells expressing TCR Activator (CHO/TCRAct), or CHO K1 cells expressing TCR Activator and […]. The cells were incubated with the indicated concentrations of the compounds for 6 hours and luminescence was measured as an indicator of TCR-dependent activation of Jurkat-ECs. The graphs present fold induction of the luminescence signal relative to DMSO-treated cells. […]

[3] = biological target: T1, PD-1/PD-L1 interaction (Homo sapiens, UniProt Q9NZQ7); assay: PD-1/PD-L1 ICB assay (Jurkat-ECs with CHO/TCRAct/PD-L1 cells, luciferase); assay type: cell-based
T1 construct: host or cells: CHO-K1 (CHO/TCRAct/PD-L1) and Jurkat effector cells
T1 sequence (Q9NZQ7 19-290): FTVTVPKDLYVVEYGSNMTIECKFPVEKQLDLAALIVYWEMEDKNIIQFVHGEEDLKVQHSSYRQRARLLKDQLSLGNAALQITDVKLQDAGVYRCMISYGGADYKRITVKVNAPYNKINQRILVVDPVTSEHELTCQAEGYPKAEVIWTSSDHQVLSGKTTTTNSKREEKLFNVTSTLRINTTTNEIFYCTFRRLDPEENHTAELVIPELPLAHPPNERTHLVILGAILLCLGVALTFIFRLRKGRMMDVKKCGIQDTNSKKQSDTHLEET
Experimental: After a successful optimization of the terphenyl compounds, the activity of the optimized molecules 7a and 8a–j in a cellular context was assessed. To this end, we first performed the PD-1/PD-L1 ICB assay. In this assay, T-cell receptor (TCR)-mediated activation of Jurkat effector cells (Jurkat-ECs) is reduced by the presence of PD-L1, exposed at the surface of CHO/TCRAct/PD-L1 cells (Figure 3A).
The functional assay of the blockade of PD-1/PD-L1 interaction in vitro (PD-1/PD-L1 Blockade Bioassay, Promega) was performed according to the manufacturer’s protocol. CHO/TCRAct/PD-L1 cells or CHO/TCRAct or CHO-K1 cells were seeded on 96-well white plates at the density of 10,000 cells/well and the next day overlaid with Jurkat T cells (20,000 cells/well) in the presence of increasing concentrations of the compounds with DMSO only as a control (the concentration of DMSO was kept constant at 0.1%) or atezolizumab, as a positive control, anti-PD-L1 monoclonal antibody (Selleckchem). The 2.5-fold dilutions of atezolizumab were prepared in the assay buffer (RPMI 1640 + 1% FBS) on the day of the assay. Activation of the Jurkat T cells, reflected by luciferase activity, was monitored by luminescence measurements after 6 h of incubation (37 °C, 5% CO2), and 20 min of additional incubation with the Bio-Glo assay reagent (Promega) at room temperature. The luminescence was read on a Spark microplate reader (Tecan). The data are presented as fold induction of the luminescence signal relative to either untreated (for atezolizumab) or DMSO-treated (for compound) cells. Data points represent mean ± SD values from three to five independent experiments. Half-maximal effective concentrations (EC50 values) were calculated from the Hill curve fitting to the experimental data using Origin Pro 2020 software (OriginLab).

[4] = biological target: PD-1/PD-L1 complex (Homo sapiens, UniProt Q9NZQ7); assay: HTRF assay of PD-1/PD-L1 complex dissociation (CisBio); details: for remaining activity at 0.005 µM: 2 h;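 as to all read-outs here: human PD-L1 at 5 nM with human PD-1 at 50 nM, TR-FRET signal read after 2 h at room temperature, background removed via negative control and scaled to positive control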
Chain of PD-1/PD-L1 complex (Q9NZQ7 19-238 limits assumed, one chain of several): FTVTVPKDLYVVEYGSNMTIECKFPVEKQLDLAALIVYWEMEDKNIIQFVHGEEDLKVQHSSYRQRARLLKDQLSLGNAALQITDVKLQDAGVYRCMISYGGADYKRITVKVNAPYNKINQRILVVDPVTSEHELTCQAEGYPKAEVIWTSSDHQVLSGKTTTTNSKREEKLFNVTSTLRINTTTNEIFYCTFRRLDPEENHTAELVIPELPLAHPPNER
Experimental: HTRF was performed using the certified CisBio assay according to the manufacturer’s guidelines. The experiments were performed at 5 nM h-PD-L1 and 50 nM hPD-1 in the final formulation at 20 μL final volume in the well. To determine the half-maximal inhibitory concentration (IC50) of tested compounds, measurements were performed on two individual dilution series, unless states otherwise. After mixing all components according to the CisBio protocol, the plate was left for 2 h incubation at room temperature, followed by time-resolved fluorescence energy transfer (TR-FRET) measurement on Tecan Spark 20M. Collected data were background-subtracted on the negative control, normalized on the positive control, averaged, and fitted with normalized Hill’s equation to determine the IC50 value using Mathematica 12.

[5] = system: primary CD4+ and CD8+ T cells (PBMCs); assay: T-cell activation (TCA) assay, PBMCs with CHO/TCRAct/PD-L1 cells, flow cytometry; assay type: cell-based, human; details: 48 h; compounds 0.1, 0.5, 2.5 μM; mAbs 5 μg/mL
Experimental: A standard ICB assay relies on artificial Jurkat-ECs, which are surrogates of T-cells. To verify the potential of the compounds to reactivate the PD-L1-blocked primary T cells, a modified assay termed T-cell activation (TCA) was carried out.[32] In this assay, human primary peripheral blood mononuclear cells (PBMCs) are allowed to make contact with CHO/TCRAct/PD-L1 cells alone or in the presence of PD-1/PD-L1 blockers, and the activation of CD4^+ and CD8^+ T cell is monitored by flow cytometry.
Anticoagulant citrate dextrose-A-treated blood from healthy donors was purchased from the Regional Center of Blood Donation and Blood Therapy in Krakow, Poland. PBMCs were isolated from whole blood by density gradient centrifugation using Pancoll human separating solution (PAN-Biotech GmbH, Aidenbach, Germany). The separated cells were washed and resuspended in RPMI 1640 medium (Biowest) containing 10% FBS (Biowest). PBMCs were added at an amount of 3 × 10^5 to CHO, CHO/TCRAct, or CHO/TCRAct/PD-L1 cells preseeded on 24-well plates in the presence of either anti-PD-L1 mAbs (at the final concentration 5 μg/mL): durvalumab (Selleckchem), atezolizumab (Selleckchem), or avelumab (MedChemExpress) or tested compounds at the concentrations 0.1, 0.5, and 2.5 μM. Untreated cells were used as controls for antibody treatment, while DMSO-treated cells [0.1% (v/v)] were used as controls for compound treatment. The cells were incubated for 48 h (37 °C, 5% CO2) and then detached from the plates with TrypLe Select Enzyme (Thermo Fisher). PBMCs were stained for 20 min at room temperature with the antibodies: anti-CD4-FITC, anti-CD8-BV510, anti-CD69-APC, anti-CD25-PE, anti-HLA-DR-PerCP, and anti-PD1-PECy7 (Becton Dickinson Biosciences, BD). Following two washing steps, the cells were analyzed with a FACSCanto II cytometer. Data analysis was carried out with FlowJo software, followed by statistical significance calculations done with Origin Pro 2020 software (OriginLab). Statistical significance was analyzed with one-way analysis of variance (ANOVA), followed by the Fisher’s posthoc test: *p < 0.05, **p < 0.01, […].

[6] = system: PBMCs cocultured with CHO/TCRAct/PD-L1 cells; assay: Cytokine accumulation in culture media of the TCA assay (CBA Th1/Th2/Th17 kit); assay type: cell-based, human; details: TCA assay supernatants, four donors
Experimental: In addition to the expression of surface markers, the accumulation of immune-related cytokines in the culture media collected in the TCA assay was monitored with the cytometric bead array (CBA) human Th1/Th2/Th17 kit. […] Also, the levels of IL-6, IFN-γ, and IL-2 increased, but these increases were not statistically significant.
The concentration of the cytokines (IL-2, IL-4, IL-6, IL-10, IL-17A, IFN-γ, and TNFα) in supernatants was determined using the CBA Human Th1/Th2/Th17 kit (BD Biosciences), with data acquisition using the FACSCanto flow cytometer. The CBA beads were discriminated in FL-4 and FL-5 channels, while the concentration of specified cytokines was determined by the intensity of FL-2 fluorescence, using the respective standard reference curve and FCAP Array software (BD Biosciences). IL-4 was below the detection level and is not presented in the manuscript. Statistical significance was analyzed with one-way ANOVA using the Origin Pro 2020 software, followed by the Fisher’s posthoc test: *p < 0.05, **p < 0.01, […].

Molecule | EC50 at 48 h [1] [nM] | activation of Jurkat-ECs where PD-L1 is absent [2] | selectivity of PD-1/PD-L1-blocking activity versus cytotoxicity ([3]; EC50 (tox.) vs EC50 (bio.), Figure 3F) | EC50 ([3]; Jurkat-ECs with CHO/TCRAct/PD-L1, 6 h, SI csv, read-out: Bioactivity (EC50 in the ICB assay)) [nM] | remaining activity at 0.005 µM ([4]; read-out: % of undissociated complex at 5 nM) [%] | remaining activity at 0.005 µM ([4]; read-out: HTRF % of the undissociated complex at 5 nM) [%] | IC50 ([4]; HTRF, Table 4, <1.00 = limit of quantification reached) [nM] | numbers of PD-1-positive T cells [5] | accumulation of immune-related cytokines in culture media [6] | activation of Jurkat-ECs ([3]; 6 h, fold induction of luminescence)
COc1cc(-c2cccc(-c3ccc4c(c3)OCCO4)c2Cl)ccc1CNCCNC(N)=O [8h, 1-(2-(((3′-(Benzo-1,4-dioxan-6-yl)-2′-chloro-3-methoxy-[1,1′-biphenyl]-4-yl)methyl)amino)ethyl)urea] | 4140 ± 710 | requires the presence of PD-L1 | highest selectivity | 2000 ± 370 | 6 | 6 | < 1 | significant increase | – | –
atezolizumab: therapeutic anti-PD-L1 monoclonal antibody, positive control | – | – | – | – | – | – | – | increases the expression of PD-1 on T-cells | significantly increased levels of IL-17A, TNF-α, and IL-10 | full activation of Jurkat-ECs is restored
